Data published in US20250251402A1, “METHODS OF DETECTING MOLECULAR AGGREGATES USING IMAGE CORRELATION SPECTROSCOPY (ICS)” (The General Hospital Corporation, priority 2022, published 2025).

Key:
Assay type in all cases: cell-based
OVCA429 cells [1] = assay: RAD51 immunofluorescence in OVCA429 cells (Imaris Spots, ICS DA)
Excerpt: (§1) For the ICS analysis, nuclei were segmented from the DAPI channel using a watershed approach in MATLAB. Briefly, we applied a difference of gaussians for size-based feature extraction of nuclei in the image (upper gaussian σ=100, lower gaussian σ=2-5 dependent on cell size). This feature enhanced image was then binarized to create a primary mask (using the function imbinarize) and connected components under 100 pixels were removed (using the function bwareaopen). We then created a distance transform of the resulting binary image (using the function bwdist). Seed points were determined by finding the regional maximum of a gaussian filtered image, with a gaussian σ of appropriate size for seed point detection (σ×7 or 8 dependent on cell size). […]
(§2) Using the nucleus masks, we performed ICS analysis on the antibody-stained channel, within size limitations for a nucleus (objects >400 and <2400 pixels). Intensity, DA and TNOP were calculated for each cell. […]
(§3) Imaris spots analysis were performed with Imaris 9.8 with background subtraction, using a spot size of 1 μm that was measured from the smallest distinguishable foci from the control image. […] In each dataset, the automatic “quality” threshold was determined from the control image and the same threshold was used for every image in the dataset to be able to compare the outputs across datasets. […]

SKOV3 cells [2] = assay: RAD51 immunofluorescence in SKOV3 cells (Imaris Spots, ICS DA)
Excerpt: (§4) For the ICS analysis, nuclei were segmented from the DAPI channel using a watershed approach in MATLAB. Briefly, we applied a difference of gaussians for size-based feature extraction of nuclei in the image (upper gaussian σ=100, lower gaussian σ=2-5 dependent on cell size). This feature enhanced image was then binarized to create a primary mask (using the function imbinarize) and connected components under 100 pixels were removed (using the function bwareaopen). We then created a distance transform of the resulting binary image (using the function bwdist). Seed points were determined by finding the regional maximum of a gaussian filtered image, with a gaussian σ of appropriate size for seed point detection (σ×7 or 8 dependent on cell size). The seed points were applied to the distance transform, and we applied the watershed function to the resulting image to obtain masks for each nucleus (extracted using the function regionprops).
(§5) Using the nucleus masks, we performed ICS analysis on the antibody-stained channel, within size limitations for a nucleus (objects >400 and <2400 pixels). Intensity, DA and TNOP were calculated for each cell. In this analysis, since the ROI is defined by the nucleus mask (segmented from nuclear signal using DAPI staining), TNoP represents the total number of particles per nucleus, with the image area being the number of pixels in each nuclear mask.
Imaris spots analysis were performed with Imaris 9.8 with background subtraction, using a spot size of 1 μm that was measured from the smallest distinguishable foci from the control image. For images with multiple nuclei, ImarisCell was used with the detection type “cell and vesicles”, where the nucleus in the DAPI channel was modelled as the “cell” and antibody-labeled foci were modelled as the “vesicles”. This enabled us to count the number of foci per nucleus for multiple cells. In each dataset, the automatic “quality” threshold was determined from the control image and the same threshold was used for every image in the dataset to be able to compare the outputs across datasets. […]

OVCA429 cells [3] = assay: γH2AX immunofluorescence in OVCA429 cells (intensity, Imaris Spots, ICS TNoP and DA)
Excerpt: as §4, §5
(§6) Measurements across experiments were normalized by the control in each dataset. […] Data were plotted in Prism and statistical analysis was performed in Excel.
(§7) Imaris spots analysis were performed with Imaris 9.8 with background subtraction, using a spot size of 1 μm that was measured from the smallest distinguishable foci from the control image. For images with multiple nuclei, ImarisCell was used with the detection type “cell and vesicles”, where the nucleus in the DAPI channel was modelled as the “cell” and antibody-labeled foci were modelled as the “vesicles”. This enabled us to count the number of foci per nucleus for multiple cells. In each dataset, the automatic “quality” threshold was determined from the control image and the same threshold was used for every image in the dataset to be able to compare the outputs across datasets. Similar to the ICS analysis, only cells with an area between 400-2400 voxels were included for analysis.
(§8) All chemicals were purchased from Sigma unless otherwise noted. All drugs were purchased from Selleck Chemicals. Cells were cultured in media supplemented with 10% fetal bovine serum and 1% penicillin/streptomycin. OVCA429 were originally obtained from Dr. Michael Birrer and cultured in DMEM. SKOV3 was obtained from ATCC and cultured in RPMI. For MMS treatment, cells were incubated for 6 hours before fixation with 4% formaldehyde, whereas for treatment with PARP inhibitors, cells were incubated for 24 hours before fixation.
(§9) Cells were plated in 8-well slides (Fisher) to achieve 50% confluence overnight. Cells were then treated and fixed with 4% formaldehyde in PBS at room temperature for 10 minutes. Antibody staining was performed according to the manufacturers protocol (Cell Signaling Technologies or Abcam). Primary antibodies used were γH2AX (CST, #2577), RPA1 (CST, #2267) and RAD51 (Abcam, 63801), with Anti-rabbit IgG Fab2 Alexa Fluor 647 (CST, #4414) as the secondary fluorescent antibody. After antibody labeling, prolong gold with DAPI (CST) was added and samples were stored for up to 1 week prior to imaging. Confocal imaging was performed on an Olympus FV1000 multiphoton/confocal microscope using an Olympus XLUMPlanFL N 20× objective, NA 1.00 with chromatic correction, and 3× digital zoom. DAPI was excited with a 405 nm laser, while Alexa Fluor 647 was excited with a 635 nm laser. A multiband (DM 405/488/561/633 nm) dichroic mirror was used to direct the excitation laser and collect emission. […]

SKOV3 cells [4] = assay: RPA1 immunofluorescence in SKOV3 cells (Imaris Spots, ICS DA)
Excerpt: as §1, §2, §3

SKOV3 cells [5] = assay: γH2AX immunofluorescence in SKOV3 cells (intensity, Imaris Spots, ICS TNoP and DA)
Excerpt: as §4, §5, §6, §7, §8, §9

OVCA429 cells [6] = assay: RPA1 immunofluorescence in OVCA429 cells (Imaris Spots, ICS DA)
Excerpt: as §1, §2, §3

COS(C)(=O)=O [MMS, methyl methane-sulfonate]
RAD51 ICS DA, dose dependence (OVCA429 cells [1]): dose dependent increases in aggregation | RAD51 Imaris Spots analysis, dose dependence (OVCA429 cells [1]): did not show an overall MMS dose dependency | RAD51 ICS DA, dose dependence (SKOV3 cells [2]; SKOV3): dose dependent increases in aggregation | RAD51 Imaris Spots analysis, dose dependence (SKOV3 cells [2]; SKOV3): did not show an overall MMS dose dependency | RAD51 ICS DA, increase over control (SKOV3 cells [2]; SKOV3, 1 mM MMS): 3 × | ICS DA of γH2AX, dose dependence (OVCA429 cells [3]; OVCA429): results similar to Spots analysis | ICS TNoP of γH2AX, dose dependence (OVCA429 cells [3]; OVCA429): did not produce any MMS dose dependence | Imaris Spots analysis of γH2AX, dose dependence (OVCA429 cells [3]; OVCA429): captured the MMS dose dependent DNA damage | γH2AX intensity (OVCA429 cells [3]; OVCA429, 1 mM MMS): drastically increases | RPA1 clustering (Spots analysis and ICS DA), dose dependence (SKOV3 cells [4]): dose dependent increase in RPA1 clustering | ICS degree of aggregation (DA) of γH2AX, dose dependence (SKOV3 cells [5]; SKOV3): dose dependence | Normalized γH2AX intensity, increase (SKOV3 cells [5]; SKOV3, highest MMS dose, normalized to untreated control): ~8 × | RPA1 Imaris Spots analysis, dose dependence (OVCA429 cells [6]; OVCA429): more modest increase with increasing MMS dose | RPA1 ICS DA, increase in aggregation (OVCA429 cells [6]; OVCA429, 1 mM MMS): exceeding 2.5 × of control
